{
  "source": "ChEMBL document CHEMBL5154881",
  "about": "“Discovery of First-in-Class TAK1-MKK3 Protein-Protein Interaction (PPI) Inhibitor (R)-STU104 for the Treatment of Ulcerative Colitis through Modulating TNF-α Production” (J Med Chem, 2022)",
  "key": {"RAW264.7 [1]": {"test_system": "RAW264.7", "experiment": "Inhibition of LPS-induced TNFalpha production in mouse RAW264.7 cells preincubated for 2 hrs followed by LPS treatment for 24 hrs by RT-qPCR analysis", "format": "functional, cell-based"}, "[2]": {"experiment": "Metabolic stability in dog liver microsomes assessed as intrinsic clearance at […] measured upto 60 mins in presence of NADPH by HPLC-MS analysis", "format": "ADME, Canis lupus familiaris, Microsome", "design": "dose or concentration left out as unconfirmed", "settings": "1 h"}, "[3]": {"experiment": "Apparent volume of distribution in 12 hr starved C57 mouse at 30 mg/kg, po measured for 0.083 to 24 hrs post-dose by LC-MS-MS analysis", "format": "ADME, organism-based", "settings": "in vivo, time 0.083-24 hrs"}, "Mus musculus [4]": {"test_system": "Mus musculus", "experiment": "Anti-ulcerative colitis activity against DSS-induced ulcerative colitis C57BL/6 mouse model assessed as body weight recovery rate at 10 mg/kg, IG via gavage administered for 7 days and measured everyday relative to control", "format": "functional", "settings": "time 7 day"}, "Mus musculus [5]": {"test_system": "Mus musculus", "experiment": "Anti-ulcerative colitis activity in DSS-induced C57BL/6 mouse ulcerative colitis model assessed as colon length recovery ratio at 3 mg/kg, IG via gavage measured after 7 days relative to control", "format": "functional", "settings": "time 7 day"}, "Mus musculus [6]": {"test_system": "Mus musculus", "experiment": "Antiinflammatory activity against DSS-induced C57BL/6 mouse model of acute ulcerative colitis assessed as inhibition ratio of IL-1beta protein expression at 1 mg/kg, IG via gavage measured after 7 days by ELISA relative to control", "format": "functional", "design": "scale not given: the % may be the effect or the level left", "settings": "time 7 day"}, "Mus musculus [7]": {"test_system": "Mus musculus", "experiment": "Antiinflammatory activity against DSS-induced C57BL/6 mouse model of acute ulcerative colitis assessed as inhibition ratio of IL-23 protein expression at 1 mg/kg, IG via gavage measured after 7 days by ELISA relative to control", "format": "functional", "design": "scale not given: the % may be the effect or the level left", "settings": "time 7 day"}, "Mus musculus [8]": {"test_system": "Mus musculus", "experiment": "Antiinflammatory activity against DSS-induced C57BL/6 mouse model of acute ulcerative colitis assessed as inhibition ratio of IL-23 protein expression at 10 mg/kg, IG via gavage measured after 7 days by ELISA relative to control", "format": "functional", "design": "scale not given: the % may be the effect or the level left", "settings": "time 7 day"}, "Mus musculus [9]": {"test_system": "Mus musculus", "experiment": "Antiinflammatory activity against DSS-induced C57BL/6 mouse model of acute ulcerative colitis assessed as reduction in serum TNF-alpha levels administered intragastrically via gavage measured after 7 days by ELISA", "format": "functional, organism-based", "settings": "dose 1-10 mg/kg, route ig, time 7.0 day, DDE = dose-dependent effect"}, "Mus musculus [10]": {"test_system": "Mus musculus", "experiment": "Antiinflammatory activity against DSS-induced C57BL/6 mouse model of acute ulcerative colitis assessed as inhibition ratio of IL-1beta mRNA expression in colon tissue at 1 mg/kg, IG via gavage measured after 7 days by RT-qPCR analysis relative to control", "format": "functional", "design": "scale not given: the % may be the effect or the level left", "settings": "time 7 day"}, "Mus musculus [11]": {"test_system": "Mus musculus", "experiment": "Antiinflammatory activity against DSS-induced C57BL/6 mouse model of acute ulcerative colitis assessed as inhibition ratio of IL-23 mRNA expression in colon tissue at 1 mg/kg, IG via gavage measured after 7 days by RT-qPCR analysis relative to control", "format": "functional", "design": "scale not given: the % may be the effect or the level left", "settings": "time 7 day"}, "Mus musculus [12]": {"test_system": "Mus musculus", "experiment": "Anti-ulcerative colitis activity in IL-10-/- C57BL/6 mouse model of ulcerative colitis assessed as histopathological score recovery ratio at 3 mg/kg, IG via gavage for 8 weeks relative to control", "format": "functional"}, "Mus musculus [13]": {"test_system": "Mus musculus", "experiment": "Antiinflammatory activity against IL-10-/- C57BL/6 mouse model of ulcerative colitis assessed as inhibition ratio of IL-1beta protein expression at 10 mg/kg, IG via gavage and measured after 8 weeks by ELISA relative to control", "format": "functional", "design": "scale not given: the % may be the effect or the level left"}, "Mus musculus [14]": {"test_system": "Mus musculus", "experiment": "Antiinflammatory activity against IL-10-/- C57BL/6 mouse model of ulcerative colitis assessed as inhibition ratio of TNF-alpha mRNA expression in colon tissue at 3 mg/kg, IG via gavage and measured after 8 weeks by RT-qPCR analysis relative to control", "format": "functional", "design": "scale not given: the % may be the effect or the level left"}, "Mus musculus [15]": {"test_system": "Mus musculus", "experiment": "Antiinflammatory activity against IL-10-/- C57BL/6 mouse model of ulcerative colitis assessed as inhibition ratio of IL-1beta mRNA expression in colon tissue at 1 mg/kg, IG via gavage and measured after 8 weeks by RT-qPCR analysis relative to control", "format": "functional", "design": "scale not given: the % may be the effect or the level left"}, "RAW264.7 [16]": {"test_system": "RAW264.7", "experiment": "Inhibition of MKK3-p38-elF4E signaling pathway in mouse RAW264.7 cells assessed as reduction in LPS-induced MK2 phosphorylation treated for 1.5 hrs followed by LPS treatment for 1 hr by Western blot analysis", "format": "cell-based", "settings": "dose 3.125-12.5 µmol/L, time 2.5 hrs, DDE = dose-dependent effect"}, "RAW264.7 [17]": {"test_system": "RAW264.7", "experiment": "Inhibition of MKK3-p38-elF4E signaling pathway in mouse RAW264.7 cells assessed as reduction in LPS-induced elF4E phosphorylation treated for 1.5 hrs followed by LPS treatment for 1 hr by Western blot analysis", "format": "cell-based", "settings": "dose 3.125-12.5 µmol/L, time 2.5 hrs, DDE = dose-dependent effect"}, "[18]": {"target": "T1, Dual specificity mitogen-activated protein kinase kinase 3 (Mus musculus) (UniProt O09110)", "T1 sequence (whole entry)": "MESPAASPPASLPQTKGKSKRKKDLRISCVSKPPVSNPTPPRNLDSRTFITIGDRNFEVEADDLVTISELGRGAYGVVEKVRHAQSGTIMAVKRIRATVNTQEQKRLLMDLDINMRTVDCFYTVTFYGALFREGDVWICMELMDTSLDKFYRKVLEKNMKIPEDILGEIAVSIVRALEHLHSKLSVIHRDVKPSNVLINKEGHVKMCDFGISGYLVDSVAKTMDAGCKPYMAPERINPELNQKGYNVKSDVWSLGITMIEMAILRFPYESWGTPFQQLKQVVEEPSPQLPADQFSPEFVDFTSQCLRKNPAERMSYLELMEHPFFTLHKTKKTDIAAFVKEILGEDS", "experiment": "Binding affinity to MKK3 in mouse RAW264.7 cells assessed as increase in thermal stability by measuring change in melting temperature at 6.25 uM incubated for 24 hrs by CETSA", "format": "cell-based"}, "[19]": {"experiment": "Toxicity in C57 mouse assessed as liver damage at 50 to 500 mg/kg, po administered daily for 14 days", "format": "organism-based", "settings": "in vivo, 336 h, dose 50-500 mg/kg, time 14 day"}, "[20]": {"experiment": "Toxicity in C57 mouse assessed as kidney damage at 50 to 500 mg/kg, po administered daily for 14 days", "format": "organism-based", "settings": "in vivo, 336 h, dose 50-500 mg/kg, time 14 day"}, "Mus musculus [21]": {"test_system": "Mus musculus", "experiment": "Anti-ulcerative colitis activity against DSS-induced ulcerative colitis C57BL/6 mouse model assessed as reduction in DAI score at 3 mg/kg, IG via gavage administered for 7 days and measured everyday (reference value: 4.0)", "format": "functional", "settings": "time 7 day"}, "Mus musculus [22]": {"test_system": "Mus musculus", "experiment": "Antiinflammatory activity against DSS-induced C57BL/6 mouse model of acute ulcerative colitis assessed as inhibition of IL-6 mRNA expression in colon tissue administered intragastrically via gavage measured after 7 days by RT-qPCR analysis", "format": "functional, organism-based", "settings": "route ig, time 7.0 day, DDE = dose-dependent effect"}, "[23]": {"target": "T2, Dual specificity mitogen-activated protein kinase kinase 3 (Homo sapiens, UniProt P46734)", "T2 sequence (P46734 whole entry)": "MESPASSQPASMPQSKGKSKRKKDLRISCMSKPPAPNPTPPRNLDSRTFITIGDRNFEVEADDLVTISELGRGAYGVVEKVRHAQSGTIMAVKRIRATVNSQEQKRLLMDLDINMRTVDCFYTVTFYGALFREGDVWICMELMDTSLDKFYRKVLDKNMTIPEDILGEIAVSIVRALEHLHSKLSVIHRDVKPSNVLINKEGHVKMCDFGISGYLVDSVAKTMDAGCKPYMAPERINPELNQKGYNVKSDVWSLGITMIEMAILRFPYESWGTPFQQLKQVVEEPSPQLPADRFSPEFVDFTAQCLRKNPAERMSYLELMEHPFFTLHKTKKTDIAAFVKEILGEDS", "experiment": "Binding affinity to CM5 chip immobilized human MKK3 (20 to 347 residues) expressed in Escherichia coli BL21 (DE3) assessed as dissociation constant, Kd by surface plasmon resonance analysis"}},
  "data": [
    {"smiles": "COc1ccc([C@H]2CC(=O)c3cc(OC)cc(OC)c32)cc1", "values": [
      {"measurement": "IC50", "setting": "RAW264.7 [1]", "value": 580, "unit": "nM"},
      {"measurement": "CLH", "setting": "[2]", "value": 121.4, "unit": "mL/min/g"},
      {"measurement": "Vz", "setting": "[3]", "value": 3.68, "unit": "L/kg"},
      {"measurement": "Activity", "setting": "Mus musculus [4]", "value": 52.4, "unit": "%"},
      {"measurement": "Activity", "setting": "Mus musculus [5]", "value": 51.5, "unit": "%"},
      {"measurement": "Activity", "setting": "Mus musculus [6]", "value": 46.9, "unit": "%"},
      {"measurement": "Activity", "setting": "Mus musculus [7]", "value": 46.2, "unit": "%"},
      {"measurement": "Activity", "setting": "Mus musculus [8]", "value": 52.3, "unit": "%"},
      {"measurement": "Activity", "setting": "Mus musculus [9]", "value": "Dde"},
      {"measurement": "Activity", "setting": "Mus musculus [10]", "value": 70.1, "unit": "%"},
      {"measurement": "Activity", "setting": "Mus musculus [11]", "value": 71.7, "unit": "%"},
      {"measurement": "Activity", "setting": "Mus musculus [12]", "value": 50.5, "unit": "%"},
      {"measurement": "Activity", "setting": "Mus musculus [13]", "value": 51.8, "unit": "%"},
      {"measurement": "Activity", "setting": "Mus musculus [14]", "value": 69.5, "unit": "%"},
      {"measurement": "Activity", "setting": "Mus musculus [15]", "value": 22.8, "unit": "%"},
      {"measurement": "inhibition", "setting": "RAW264.7 [16]", "value": "Dde"},
      {"measurement": "inhibition", "setting": "RAW264.7 [17]", "value": "Dde"},
      {"measurement": "ΔTm", "setting": "[18]", "value": 2, "unit": "°C"},
      {"measurement": "Activity", "setting": "[19]", "value": "Non-Toxic"},
      {"measurement": "Activity", "setting": "[20]", "value": "Non-Toxic"},
      {"measurement": "Activity", "setting": "Mus musculus [21]", "value": 2.4},
      {"measurement": "Activity", "setting": "Mus musculus [22]", "value": "Dde"},
      {"measurement": "Kd", "setting": "[23]", "value": "3.61 10^-3/s"}
    ]}
  ]
}
